Laboratory results as given in patent publication US9011910B2, “Implantable tizanidine compositions and methods of treatment thereof” (Endo Pharmaceuticals Solutions Inc., priority 2011, dated 2015).
Where a name gives a salt, the structure may show the parent alone. Read-outs that look alike come from different tables or passages of the source.

How the values were obtained:
[1] = 2% stearic acid; for in vitro elution rate: nine pellets, 100 mL PBS at 37° C.; for release rate: about 250 mg API, up to 36 weeks
Text: In one embodiment of the present invention, tizanidine is delivered to the subject at a target range of about 100 micrograms/day to about 10,000 micrograms/day. For example, tizanidine is delivered to the subject at a target range of about 100 to about 5,000 micrograms/day, or about 200 to about 4,000 micrograms per day, or about 300 to about 3,000 micrograms per day or about 400 to about 2,000 micrograms per day. The testing method set forth in the examples to determine the elution rates for compositions comprising tizanidine includes placing the implants in an elution bath consisting of PBS or 0.9% saline at 37° C. Weekly exchanges of the elution media are then analyzed by HPLC for the durations given.
The implants were sterilized by gamma irradiation and placed in an elution bath consisting of 100 mL PBS at 37° C.
A discrete solid dosage form was prepared as follows. The drug implants were manufactured using PEBAX® 2533 and PEBAX® 3533, as the tubing material and tizanidine free base as the API. […] A total of about 250 mg tizanidine free base were loaded into the implant with 10% croscarmellose and 2% stearic acid. The implant were sterilized by gamma irradiation and placed in an elution batch consisting of 200 mL 0.9% saline at 37° C.
A discrete solid dosage form was prepared as follows. Various polyurethanes were used as the tubing material (i.e., TECOFLEX® EG-80A, TECOFLEX® EG-85A, TECOFLEX® EG-93A, TECOPHILIC® HP-60D-05, and TECOPHILIC® HP-60D-10 polyurethanes) and tizanidine hydrochloride as the API. […] A total of about 380 mg tizanidine hydrochloride were loaded into the implant with 10% croscarmellose and 2% stearic acid. The implants were sterilized by gamma irradiation and placed in an elution batch consisting of 200 mL PBS at 37° C. Weekly exchanges of the elution media were analyzed by HPLC over 5 weeks.
The drug implants were manufactured as described in Example 3, except tizanidine free base was used as the API instead of tizanidine HCl. […] A total of about 250 mg tizanidine free base were loaded into the implants with 10% croscarmellose and 2% stearic acid. The implants were sterilized by gamma irradiation and placed in an elution batch consisting of 200 mL PBS at 37° C. Weekly exchanges of the elution media were analyzed by HPLC for up to 36 weeks.

[2] = oral dosage form, approximate; cited from earlier work

| Compound | drug release from the implants (elution rate in vitro) ([1]; all polyurethanes investigated (TECOFLEX EG-80A, EG-85A, EG-93A, TECOPHILIC HP-60D-05, HP-60D-10), about 380 mg API, 10% croscarmellose, 200 mL PBS at 37° C., 5 weeks) | oral bioavailability [2] | in vitro elution rate ([1]; TECOFLEX EG-80A implant, 5% croscarmellose, 405 mg API, week 2) | in vitro elution rate ([1]; TECOFLEX EG-80A implant, 5% croscarmellose, 405 mg API, week 27) | in vitro elution rate ([1]; TECOFLEX EG-80A implant, 15% croscarmellose, 360 mg API, week 2) | in vitro elution rate ([1]; TECOFLEX EG-80A implant, 15% croscarmellose, 360 mg API, week 27) | release rate ([1]; TECOFLEX EG-80A implant, 10% croscarmellose, 200 mL PBS at 37° C.) | release rate ([1]; TECOFLEX EG-93A implant, 10% croscarmellose, 200 mL PBS at 37° C.) |
| --- | --- | --- | --- | --- | --- | --- | --- | --- |
| Clc1ccc2nsnc2c1NC1=NCCN1 [tizanidine HCl, tizanidine hydrochloride] | below 100 μg per day | 20-40% |  |  |  |  |  |  |
| Clc1ccc2nsnc2c1NC1=NCCN1 [tizanidine free base, 5-chloro-N-(4,5-dihydro-1H-imidazol-2-yl)benzo[c][1,2,5]thiadiazol-4-amine] |  |  | about 1,200 μg/day | about 900 μg/day | about 1,400 μg/day | about 1,250 μg/day | about 900 μg per day | about 100 μg per day |
